In patent US11414437B2, “Borate compound, and synthesis method therefor and uses thereof” (CHENGDU ORIGIN BIOTECHNOLOGY LIMITED COMPANY, priority 2017, dated 2022):
Where two headings read alike, the source gives them in different places. Blank lines part the entries; values can stand above or below the compound they belong to.

Assays:
[1] = tested on: MM.1S human multiple myeloma SCID mouse transplanted tumor; experiment: Pharmacodynamic test, SCID mouse transplanted tumor model; type: in vivo; details: 0.0166 mmol/kg intragastric
Procedure: In the experiment, a SCID mouse transplanted tumor model of a human multiple myeloma cell line MM.1S was used. Specific modeling steps were as follows: frozen MM.1S cells were resuscitated and cultured in vitro according to a routine, and the cells were collected in a logarithmic growth phase, and diluted with PBS to form a tumor cell suspension with a concentration of 5×10^7/ml. […] About 1 week to 2 weeks after injection, the mass was palpable in axillary, and in vivo passage was performed when a tumor volume was larger than 500 mm^3. After the mouse was killed by a neck pulling method, a body surface was disinfected, skin was cut open, aseptic operation was performed, a tumor tissue was peeled off from an axillary subcutaneous tissue, a fibrous capsule was removed, and the tumor was taken out. The tumor was washed clean in normal saline, and then cut, and after removing the central necrotic part, the tumor tissue with good growth, reddish color and fish flesh shape was selected, then was cut into 1 mm×1 mm×1 mm small pieces, and placed in normal saline for later use. The cut tumor was placed in a mouth of a No. 18 trocar, iodized cotton was used to disinfect the side of the armpit close to the back of the mouse, and local inoculation was performed. The transplanted tumor used in the test was the 4th generation of in vivo passage. When the tumor volume of most SCID mice of in vivo passage was larger than 100 mm^3, the tumor volume was measured and calculated, and the mice were randomly grouped according to the tumor volume.
The administration mode was intragastric administration through mouth, with an administration volume of 10 ml/kg. The model control group was given the same volume of solvent intragastrically. The mice were all intragastrically administrated through mouth twice a week for a total of 5 times, i.e., the mice were administrated at the 1st, 5th, 8th, 12th and 15th days of the experiment, with a duration of 18 days.
Doses of different tested samples were equimolar, with a specific dose of 0.0166 mmol/kg; and the model control group was only given normal saline. The medicines were 8b and 8l, as well as Ixazomib Citrate (MLN9708) and Ixazomib (MLN2238).
On the 5th, 8th, 12th, 15th and 18th days after administration, a short diameter (a) and a long diameter (b) of the tumor of each mouse were measured with a vernier caliper, and the tumor volume was calculated according to a formula (a^2×b)/2. A relative tumor volume (RTV) was calculated based on the tumor volume measured and calculated, RTV=Vt/V0. V0 was the tumor volume at random grouping (i.e., d0) and Vt was the tumor volume at each measurement (i.e., dn). A relative tumor proliferation rate of an anti-tumor activity evaluation index was calculated according to the following formula: relative tumor proliferation rate T/C (%): […]
(Note: TRTV was a RTV of the treatment group; and CRTV was a RTV of the model control group. An evaluation standard of a curative effect was T/C %≤40%, and the medicine was effective when P<0.05 after statistical treatment).
After weighing and measuring the tumor on the 18th day, all animals were sacrificed, and the tumor was taken and weighed.

SD rats = tested on: SD rats
From the text: The test was a single-dose toxicity test of SD rats by intragastric administration through mouth.

hERG potassium channel = hERG potassium channel (Homo sapiens, UniProt Q12809); experiment: Inhibition test of hERG potassium channel of heart (patch clamp); type: cell-based; details: for inhibitory effect on the hERG potassium channel (judged by general standard): judged by the standard of b169; for IC50: patch clamp; for IC50 / hERG current inhibition ratio %: n 3
Sequence of hERG potassium channel (Q12809 whole entry): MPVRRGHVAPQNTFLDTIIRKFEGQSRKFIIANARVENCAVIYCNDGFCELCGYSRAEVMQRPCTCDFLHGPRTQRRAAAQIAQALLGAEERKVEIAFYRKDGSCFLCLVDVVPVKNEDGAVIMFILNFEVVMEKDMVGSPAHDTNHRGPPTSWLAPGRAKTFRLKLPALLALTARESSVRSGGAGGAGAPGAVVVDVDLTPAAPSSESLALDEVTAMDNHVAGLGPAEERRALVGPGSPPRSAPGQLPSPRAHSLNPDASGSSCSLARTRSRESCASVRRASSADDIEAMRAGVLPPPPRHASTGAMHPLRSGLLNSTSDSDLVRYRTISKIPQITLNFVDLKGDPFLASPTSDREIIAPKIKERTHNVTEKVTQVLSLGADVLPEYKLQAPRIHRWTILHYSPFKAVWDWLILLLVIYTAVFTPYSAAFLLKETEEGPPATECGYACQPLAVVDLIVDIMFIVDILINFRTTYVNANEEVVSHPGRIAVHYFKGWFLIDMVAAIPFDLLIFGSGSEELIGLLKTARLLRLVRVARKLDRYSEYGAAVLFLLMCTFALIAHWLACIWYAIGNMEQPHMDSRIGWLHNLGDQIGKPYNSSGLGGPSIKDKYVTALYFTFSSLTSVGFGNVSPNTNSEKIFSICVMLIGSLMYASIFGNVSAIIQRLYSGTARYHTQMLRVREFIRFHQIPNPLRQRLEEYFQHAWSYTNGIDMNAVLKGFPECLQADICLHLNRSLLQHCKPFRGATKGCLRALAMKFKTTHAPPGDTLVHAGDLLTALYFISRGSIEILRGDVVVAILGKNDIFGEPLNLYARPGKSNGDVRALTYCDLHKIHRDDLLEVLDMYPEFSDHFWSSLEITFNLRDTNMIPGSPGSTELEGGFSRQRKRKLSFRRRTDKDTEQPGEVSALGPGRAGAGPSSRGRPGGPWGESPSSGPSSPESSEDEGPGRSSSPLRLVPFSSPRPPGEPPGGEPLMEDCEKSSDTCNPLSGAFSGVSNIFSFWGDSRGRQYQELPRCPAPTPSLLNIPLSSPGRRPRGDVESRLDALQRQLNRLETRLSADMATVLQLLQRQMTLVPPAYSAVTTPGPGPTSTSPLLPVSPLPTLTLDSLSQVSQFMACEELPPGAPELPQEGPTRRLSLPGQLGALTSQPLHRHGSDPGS
From the text: An inhibitory effect of the tested compound on hERG was judged by a general standard (Roche O. et al. ChemBioChem. 2002, 3:455-459.):
When a hERG semi-inhibitory concentration of a medicine exceeded about 30 times of a peak concentration thereof in blood, the concentration was in a relatively safe range (Redfernelt al, Cardiovascular Research, 58, 32-45 (2003)).

[2] = High-temperature and high-humidity accelerated stability test; type: physicochemical; details: compared with compounds 8l, MLN9708, MLN2238 of the prior art
From the text: In addition, the compound of the present invention has better stability.

[3] = dose 2, 0.001662 mmol/kg single intragastric dose, 6 female rats, 14 days observation
[4] = dose 2, 0.001662 mmol/kg single intragastric dose, 6 male rats, 14 days observation
[5] = dose 4, 0.00277 mmol/kg single intragastric dose, 6 female rats, 14 days observation
[6] = dose 4, 0.00277 mmol/kg single intragastric dose, 6 male rats, 14 days observation

SMILES: CC(C)C[C@H](NC(=O)CNC(=O)c1cc(Br)ccc1Cl)B1OC(=O)[C@@H](c2ccccc2)O1 [compound 8b, 2-chloro-5-bromo-N-[2-({(1R)-3-methyl-1-[(5R)-4-oxo-5-phenyl-1,3,2-dioxaborolan-2-yl]butyl}amino)-2-oxoethyl]benzamide]
inhibition of tumor growth (in words) ([1]; stronger than 8l, MLN9708, MLN2238 (p<0.01)): significantly inhibited tumor growth
Tumor weight ([1]; after the 18th day, X ± SD): 0.028 ± 0.025 g
Female Suvival (SD rats; dose 1, 0.001108 mmol/kg single intragastric dose, 6 female rats, 14 days observation): 6
Male Suvival (SD rats; dose 1, 0.001108 mmol/kg single intragastric dose, 6 male rats, 14 days observation): 6
Female Death (SD rats; [3]): 0
Female Suvival (SD rats; [3]): 6
Male Death (SD rats; [4]): 0
Male Suvival (SD rats; [4]): 6
Female Suvival (SD rats; dose 3, 0.002216 mmol/kg single intragastric dose, 6 female rats, 14 days observation): 6
Male Suvival (SD rats; dose 3, 0.002216 mmol/kg single intragastric dose, 6 male rats, 14 days observation): 6
Female Death (SD rats; [5]): 2
Female Suvival (SD rats; [5]): 4
Male Death (SD rats; [6]): 0
Male Suvival (SD rats; [6]): 6
maximum tolerance dose (SD rats; female rats, single intragastric dose): 0.002216 mmol/kg
Female Death (SD rats; female, rat, in vivo, 0.001108 mmol/kg, 14 days): 0
Female Death (SD rats; female, rat, in vivo, 0.002216 mmol/kg, 14 days): 0
Male Death (SD rats; male, rat, in vivo, 0.001108 mmol/kg, 14 days): 0
Male Death (SD rats; male, rat, in vivo, 0.002216 mmol/kg, 14 days): 0
inhibitory effect on the hERG potassium channel (judged by general standard) (hERG potassium channel): no inhibitory effect
IC50 (hERG potassium channel): > 30 µM
stability under high-temperature and high-humidity accelerated test condition [2]: better stabilities

stability under high-temperature and high-humidity accelerated test condition [2]: better stabilities
SMILES: CC(C)C[C@H](NC(=O)CNC(=O)c1cc(Br)ccc1Cl)B1OC(=O)c2ccccc2O1 [compound 8a]
hERG current inhibition ratio % (hERG potassium channel; 0.3 μM): 1.47% ±
hERG current inhibition ratio % (hERG potassium channel; 1 μM): 5.53% ±
hERG current inhibition ratio % (hERG potassium channel; 3 μM): 4.36% ±
hERG current inhibition ratio % (hERG potassium channel; 10 μM): 11.24% ±
hERG current inhibition ratio % (hERG potassium channel; 30 μM): 7.86% ±
inhibitory effect on the hERG potassium channel (judged by general standard) (hERG potassium channel): no inhibitory effect
IC50 (hERG potassium channel): > 30 µM
